Assay results as given in patent publication US20240254138A1, “TRICYCLIC PYRIMIDINES AS CYCLIN-DEPENDENT KINASE 7 (CDK7) INHIBITORS” (JANSSEN PHARMACEUTICA NV, priority 2021, published 2024).
Read-outs that look alike come from different tables or passages of the source.

Legend:
[1] = test system: RNA Polymerase II Serine 5 phosphorylation (Rpb1 CTD, downstream substrate of CDK7) in A549 cells; test: Imaging-based cellular RNA PolII Ser5 phosphorylation assay in A549 cells; assay type: cell-based, human; details: wild-type CDK7, RNA PolII Ser5 phosphorylation, averaged over all measurements; for IC50: Homo sapiens, A549, A549 cells, read-out: CDK7_A549 Wild-type CDK7 (pIC50) (converted); for CDK7_A549 Wild-type CDK7 (pIC50): A549 cells
Procedure, shortened: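 IC50 derived by fitting % control (DMSO high, 10 μM reference low) against concentration, with Hill slope. Readout: high-content imaging of phospho-Ser5 Rpb1 CTD antibody staining in fixed, permeabilized A549 cells exposed to compound 3 h after 20 h culture in 1% FBS DMEM.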

[2] = test system: RNA Polymerase II Serine 5 phosphorylation in A549 cells overexpressing CDK7-mutant (C312S); test: Imaging-based cellular RNA PolII Ser5 phosphorylation assay in A549 cells overexpressing CDK7-mutant (C312S); assay type: cell-based, human; details: RNA PolII Ser5 phosphorylation, averaged over all measurements; for IC50: Homo sapiens, A549, A549 cells overexpressing CDK7-mutant (C312S), read-out: CDK7_A549 mutant hCDK7(pIC50) (converted); for CDK7_A549 mutant hCDK7(pIC50): A549 cells overexpressing CDK7-mutant (C312S)
Procedure, shortened: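 Readout was automated imaging of anti-phospho-Ser5 Rpb1 CTD immunofluorescence, with IC50 fitted to % control versus concentration. Cells were A549 stably overexpressing non-covalently targetable CDK7 C312S alongside wild-type, exposed to compound 3 h at 37 °C. DMSO and 10 μM reference compound served as controls.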

[3] = target: CDK7/cyclinH/MAT1 trimeric complex (Homo sapiens, UniProt P50613); test: In vitro CDK7 assay, potency of irreversible covalent inhibitors (kinact/KI), coupled PK/LDH ADP readout at 340 nm
Chain of CDK7/cyclinH/MAT1 trimeric complex (P50613 whole entry): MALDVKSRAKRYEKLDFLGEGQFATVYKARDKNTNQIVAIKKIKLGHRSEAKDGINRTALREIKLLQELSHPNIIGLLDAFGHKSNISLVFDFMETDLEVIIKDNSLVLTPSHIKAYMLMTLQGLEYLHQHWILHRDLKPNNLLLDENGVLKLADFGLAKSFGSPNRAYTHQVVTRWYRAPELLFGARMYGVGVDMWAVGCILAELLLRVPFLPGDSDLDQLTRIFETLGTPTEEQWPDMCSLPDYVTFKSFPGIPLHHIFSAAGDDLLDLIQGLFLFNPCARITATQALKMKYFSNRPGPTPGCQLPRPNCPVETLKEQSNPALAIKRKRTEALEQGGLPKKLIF
Chain of CDK7/cyclinH/MAT1 trimeric complex (P51946 whole entry partner): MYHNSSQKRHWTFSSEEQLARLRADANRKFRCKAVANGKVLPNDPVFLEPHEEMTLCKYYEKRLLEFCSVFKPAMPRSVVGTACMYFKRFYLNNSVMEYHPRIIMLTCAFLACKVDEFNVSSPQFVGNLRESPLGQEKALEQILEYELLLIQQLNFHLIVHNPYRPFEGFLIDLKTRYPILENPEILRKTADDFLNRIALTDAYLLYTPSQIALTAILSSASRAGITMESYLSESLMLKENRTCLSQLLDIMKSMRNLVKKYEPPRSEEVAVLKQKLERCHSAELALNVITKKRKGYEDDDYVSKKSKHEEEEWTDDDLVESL
Chain of CDK7/cyclinH/MAT1 trimeric complex (P51948 whole entry partner): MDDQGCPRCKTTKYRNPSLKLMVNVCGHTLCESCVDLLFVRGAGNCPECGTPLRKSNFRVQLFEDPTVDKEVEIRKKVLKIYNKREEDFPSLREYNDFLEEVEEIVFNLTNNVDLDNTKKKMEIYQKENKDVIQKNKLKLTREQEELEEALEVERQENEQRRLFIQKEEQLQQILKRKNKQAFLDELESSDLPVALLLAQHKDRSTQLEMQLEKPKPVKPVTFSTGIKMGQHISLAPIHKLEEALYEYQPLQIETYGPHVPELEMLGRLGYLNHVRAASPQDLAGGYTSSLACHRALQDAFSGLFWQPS

[4] = CDK7 (20 nM enz.) (KI, μM), 20 nM enzyme
[5] = read-out: CDK7 (20 nM enz.) (kinact, s^−1), 20 nM enzyme
[6] = read-out: CDK7 (20 nM enz.) (kinact/KI, M^−1*s^−1), 20 nM enzyme
[7] = read-out: CDK7 (20 nM enz.) (kobs/[I], M^−1*s^−1), 20 nM enzyme
[8] = read-out: CDK7 (kinact/KI, M^−1*s^−1), potency of irreversible covalent inhibitors, 1 mM ATP, room temperature, averaged values over all measurements

Compound: C=CC(=O)N1CC(N2CCC(c3cc(F)c4c(c3)Nc3nccc(N5CCS(=O)(=O)CC5)c3CO4)CC2)C1 [Compound 141]
- IC50 [1]: 178 nM
- IC50 [2]: > 10000 nM
- Ki [3, 4]: 0.16 µM
- kinact [3, 5]: 8.36e-05 s⁻¹
- kinact/KI [3, 6]: 523 M⁻¹ s⁻¹

Compound: CC#CC(=O)N1CC(n2cc(-c3cc4c(c(C)n3)OC(C)c3c(N5CCOCC5)ccnc3N4)cn2)C1 (stereo not shown) [Compound 380]
- IC50 [1]: 162 nM
- IC50 [2]: > 10000 nM
- Ki [3, 4]: 0.241 µM
- kinact [3, 5]: 4.27e-05 s⁻¹
- kinact/KI [3, 6]: 177 M⁻¹ s⁻¹

Compound: C=CC(=O)N1CC(N2CCC(c3cc(C#N)c4c(c3)Nc3nccc(N5CCOCC5)c3C(C)O4)CC2)C1 (stereo not shown) [Compound 342]
- CDK7_A549 Wild-type CDK7 (pIC50) [1]: 7.85
- CDK7_A549 mutant hCDK7(pIC50) [2]: 5.18
- kinact/KI [3, 7]: 633 M⁻¹ s⁻¹

Compound: C=CC(=O)N1CC(N2CCC(c3ccc4c(c3)Nc3nccc(N5CCCOCC5)c3CO4)CC2)C1 [Compound 53]
- IC50 [1]: 186 nM
- IC50 [2]: > 10000 nM
- kinact/KI [3, 8]: 773 M⁻¹ s⁻¹

Compound: C=CC(=O)N1CC[C@@H](N2CCC(c3ccc4c(c3)Nc3nccc(N5CCOCC5)c3CO4)CC2)C1 (single isomer, unassigned) [Compound 44]
- IC50 [1]: < 9.77 nM
- IC50 [2]: 832 nM
- kinact/KI [3, 7]: 1570 M⁻¹ s⁻¹
- kinact/KI [3, 8]: 602 M⁻¹ s⁻¹

Compound: CC#CC(=O)N1CC[C@H](N2CC(c3cc(C)c4c(c3)Nc3nccc(C5CCOCC5)c3CO4)C2)C1 (single isomer, unassigned) [Compound 305]
- IC50 [1]: 240 nM
- IC50 [2]: > 10000 nM
- Ki [3, 4]: 0.0839 µM
- kinact [3, 5]: 2.97e-05 s⁻¹
- kinact/KI [3, 6]: 354 M⁻¹ s⁻¹

Compound: C=CC(=O)N1CC(c2ncc(-c3cc(C)c4c(c3)Nc3nccc(N5CCS(=O)(=O)CC5)c3CO4)cn2)C1 [Compound 108]
- IC50 [1]: 933 nM
- IC50 [2]: > 10000 nM
- Ki [3, 4]: 0.57 µM
- kinact [3, 5]: 5.75e-05 s⁻¹
- kinact/KI [3, 6]: 101 M⁻¹ s⁻¹

Compound: C=CC(=O)N1CCC(N2CC(c3ccc4c(c3)Nc3nccc(C5CCOCC5)c3CO4)C2)CC1 [Compound 36]
- CDK7_A549 Wild-type CDK7 (pIC50) [1]: 6.89
- CDK7_A549 mutant hCDK7(pIC50) [2]: 5.04
- CDK7 (20 nM enz.) (kinact/KI, M^−1*s^−1) ([3]; 20 nM enzyme): 535 M⁻¹ s⁻¹
- Ki [3, 4]: 0.092 µM
- kinact [3, 5]: 4.92e-05 s⁻¹

Compound: C=CC(=O)N1CCC(C#Cc2ccc3c(c2)Nc2nccc(C4CCOCC4)c2CO3)CC1 [Compound 30]
- IC50 [1]: ~7590 nM
- IC50 [2]: > 10000 nM
- Ki ([3]; CDK7 (KI(μM)), […], 1 mM ATP, room temperature, averaged values over all measurements): 0.316 µM
- kinact ([3]; read-out: CDK7 (kinact, s^−1), kinact = maximal rate of inactivation, 1 mM ATP, room temperature, averaged values over all measurements): 6.56e-05 s⁻¹
- kinact/KI [3, 8]: 208 M⁻¹ s⁻¹

Compound: C=CC(=O)N1CC[C@H](N2CCC(c3ccc4c(c3)Nc3nccc(N5CCOCC5)c3CO4)CC2)C1 (single isomer, unassigned) [Compound 38]
- IC50 [1]: 158 nM
- IC50 [2]: > 10000 nM
- Ki [3, 4]: 0.0619 µM
- kinact [3, 5]: 6.91e-05 s⁻¹
- kinact/KI [3, 6]: 1120 M⁻¹ s⁻¹
- kinact/KI [3, 8]: 744 M⁻¹ s⁻¹

Compound: CC#CC(=O)N1CC(N2CC(c3cc4c(c(C5CC5)n3)OCc3c(N5CCOCC5)ccnc3N4)C2)C1 [Compound 318]
- IC50 [1]: 324 nM
- IC50 [2]: > 10000 nM
- Ki [3, 4]: 0.0441 µM
- kinact [3, 5]: 6.19e-05 s⁻¹
- kinact/KI [3, 6]: 1400 M⁻¹ s⁻¹

Compound: CC#CC(=O)N1CC[C@H](N2CCC(c3cc4c(c(C)n3)OCc3c(-c5cnn(C)c5)ccnc3N4)CC2)C1 (single isomer, unassigned) [Compound 304]
- IC50 [1]: 129 nM
- IC50 [2]: > 10000 nM
- Ki [3, 4]: 0.111 µM
- kinact [3, 5]: 4.09e-05 s⁻¹
- kinact/KI [3, 6]: 369 M⁻¹ s⁻¹

Compound: C=CC(=O)N1CC(N2CC[C@H](c3ccc4c(c3)Nc3nccc(N5CCOCC5)c3CO4)C(C)(C)C2)C1 (single isomer, unassigned) [Compound 67]
- IC50 [1]: 214 nM
- IC50 [2]: > 10000 nM
- Ki [3, 4]: 0.0862 µM
- kinact [3, 5]: 6.48e-05 s⁻¹
- kinact/KI [3, 6]: 752 M⁻¹ s⁻¹

Compound: C=CC(=O)N1CC[C@@H](N2CC(c3cc(C)c4c(c3)Nc3nccc(N5CCOCC5)c3[C@H](C)O4)C2)C1 (single isomer, unassigned) [Compound 227]
- IC50 [1]: 724 nM
- IC50 [2]: > 10000 nM
- Ki [3, 4]: 3.01 µM
- kinact [3, 5]: 6.83e-05 s⁻¹
- kinact/KI [3, 6]: 22.7 M⁻¹ s⁻¹

Compound: C=CC(=O)N1CC(N2CC(c3cc4c(c(C)n3)OCc3c(N5CCOCC5)ccnc3N4)C2)C1 [Compound 205]
- IC50 [1]: 93.3 nM
- IC50 [2]: > 10000 nM
- CDK7 (20 nM enz.) (kinact/KI, M^−1*s^−1) ([3]; 20 nM enzyme): 399.588 M⁻¹ s⁻¹
- Ki [3, 4]: 0.119 µM
- kinact [3, 5]: 4.74e-05 s⁻¹

Compound: C=CC(=O)N1CC[C@H](N2CC(c3cc4c(c(C5CC5)n3)OCc3c(N5CCOCC5)ccnc3N4)C2)C1 (single isomer, unassigned) [Compound 421]
- CDK7_A549 Wild-type CDK7 (pIC50) [1]: 7.02
- CDK7_A549 mutant hCDK7(pIC50) [2]: 5
- CDK7 (20 nM enz.) (kinact/KI, M^−1*s^−1) ([3]; 20 nM enzyme): 1185.66 M⁻¹ s⁻¹
- Ki [3, 4]: 0.064 µM
- kinact [3, 5]: 7.59e-05 s⁻¹

Compound: C#CCCN(C)C/C=C/C(=O)N1CC(N2CCC(c3cc(C)c4c(c3)Nc3nccc(C5CCOCC5)c3CO4)CC2)C1 [Compound 124]
- IC50 [1]: 97.7 nM
- IC50 [2]: > 10000 nM
- kinact/KI [3, 7]: 1550 M⁻¹ s⁻¹

Compound: C=CC(=O)N1CC(N2CCC(c3ccc4c(c3)Nc3nccc(N5CCOCC5)c3C(C)O4)CC2)C1 (stereo not shown) [Compound 22]
- IC50 [1]: 56.2 nM
- IC50 [2]: > 10000 nM
- Ki [3, 4]: 0.0524 µM
- kinact [3, 5]: 7.22e-05 s⁻¹
- kinact/KI [3, 6]: 1870 M⁻¹ s⁻¹
- kinact/KI [3, 8]: 52.4 M⁻¹ s⁻¹

Compound: C=CC(=O)N1CC[C@H](N2CC(c3cc4c(c(C)n3)OCc3c(C5CCOCC5)ccnc3N4)C2)[C@@H](F)C1 (mixture of isomers) [Compound 242]
- IC50 [1]: 316 nM
- IC50 [2]: > 10000 nM
- Ki [3, 4]: 0.129 µM
- kinact [3, 5]: 2.7e-05 s⁻¹
- kinact/KI [3, 6]: 209 M⁻¹ s⁻¹

Compound: C=CC(=O)N1CC(N2CC[C@@H](c3ccc4c(c3)Nc3nccc(N5CCOCC5)c3CO4)[C@@H](C)C2)C1 (mixture of isomers) [Compound 70]
- IC50 [1]: 145 nM
- IC50 [2]: > 10000 nM
- kinact/KI [3, 7]: 634 M⁻¹ s⁻¹

Compound: CC#CC(=O)N1CCC(N2CC(c3cc4c(c(CCC)n3)OCc3c(N5CCOCC5)ccnc3N4)C2)CC1 [Compound 347]
- IC50 [1]: 47.9 nM
- IC50 [2]: 5130 nM
- Ki [3, 4]: 0.036 µM
- kinact [3, 5]: 2.84e-05 s⁻¹
- kinact/KI [3, 6]: 791 M⁻¹ s⁻¹

Compound: C=CC(=O)N1CCC(N2CC(c3cc(F)c4c(c3)Nc3nccc(C5CCOCC5)c3CO4)C2)CC1 [Compound 112]
- IC50 [1]: 155 nM
- IC50 [2]: 8510 nM
- Ki [3, 4]: 0.0653 µM
- kinact [3, 5]: 4.53e-05 s⁻¹
- kinact/KI [3, 6]: 693 M⁻¹ s⁻¹

Compound: C=CC(=O)N1CC(N2CCC(c3ccc4c(c3)Nc3nccc(-c5cnn(C)c5)c3C(C)(C)O4)CC2)C1 [Compound 152]
- IC50 [1]: ~67.6 nM
- IC50 [2]: > 10000 nM
- Ki [3, 4]: 0.0242 µM
- kinact [3, 5]: 4.68e-05 s⁻¹
- kinact/KI [3, 6]: 1940 M⁻¹ s⁻¹

Compound: C=CC(=O)N1CC2(CC(c3cc(F)c4c(c3)Nc3nccc(N5CCOCC5)c3CO4)C2)C1 [Compound 162]
- IC50 [1]: 182 nM
- IC50 [2]: > 10000 nM
- Ki [3, 4]: 0.149 µM
- kinact [3, 5]: 4.88e-05 s⁻¹
- kinact/KI [3, 6]: 327 M⁻¹ s⁻¹

Compound: C=CC(=O)N1CC(N2CC[C@@H](c3ccc4c(c3)Nc3nccc(N5CCOCC5)c3CO4)[C@@H](O)C2)C1 (mixture of isomers) [Compound 228]
- IC50 [1]: 178 nM
- IC50 [2]: > 10000 nM
- Ki [3, 4]: 0.129 µM
- kinact [3, 5]: 6.25e-05 s⁻¹
- kinact/KI [3, 6]: 486 M⁻¹ s⁻¹

Compound: C=C(C)C(=O)N1CC[C@@H](N2CCC(c3cc4c(c(C)n3)OCc3c(-c5cnn(C)c5)ccnc3N4)CC2)C1 (single isomer, unassigned) [Compound 311]
- IC50 [1]: > 10000 nM
- IC50 [2]: > 10000 nM

Compound: C=C(C)C(=O)N1CC[C@H](N2CCC(c3cc4c(c(C)n3)OCc3c(-c5cnn(C)c5)ccnc3N4)CC2)C1 (single isomer, unassigned) [Compound 312]
- IC50 [1]: > 10000 nM
- IC50 [2]: > 10000 nM

Compound: C=CC(=O)N1CC(c2nc(C)c(-c3cc4c(c(C)n3)OCc3c(N5CCOCC5)ccnc3N4)c(C)n2)C1 [Compound 280]
- IC50 [1]: 126 nM
- IC50 [2]: > 10000 nM
